Laboratory results reported in EP3412361A1, “METHOD FOR PREPARING PARTICULATE FORM CAESIUM-REMOVAL INORGANIC ION ADSORBENT AND PRODUCT AND APPLICATION THEREOF” (Tsinghua University, priority 2015, dated 2017).

Test: Monolayer dispersion threshold of metal salt on silica gel by XRD diffraction peak intensity extrapolation
Format: physicochemical
Details: salt impregnated on silica gel at 90 °C, dried 120 °C 10 h
Description: Through equal volume impregnation method, silica gel pellets is impregnated with a series of different concentrations of salt solution containing M^n+ ion. The impregnated solid materials are dried in an oven to obtain a silica gel intermediate M/SiO2 with a different amounts of M salt on the surface. Based on monolayer dispersion principle of a metal salt on the surface of carrier, the monolayer dispersion threshold of various kinds of M^n+ ion salts on silica gel surface is determined by X - ray diffraction method. The value is the monolayer loading of various salts on the surface of silica gel carrier.
Further, in the step (1), it is necessary to determine monolayer dispersion threshold of M^n+ ion salt on the surface of silica gel, which may be measured by loading a series of different amounts of the M^n+ ion salt onto the surface of silica gel by the solution impregnation method followed by drying to obtain the sample to be tested.
The silica gel mass is 5-10 g, and the loading amount of M^n+ ion salt on the silica gel is 0.02g, 0.05g, 0.1g, 0.5g, 1.0g, 2.0g, 3.0g, 4.0g, 5.0g, 6.0 g per g silica gel; the ratio by volume of the M^n+ ion solution to the silica gel is 0.5-2.
The obtained samples series is subjected to X-ray diffraction (XRD) and the strongest diffraction peak intensity (y-axis) is linearly correlated with the corresponding M^n+ ion salt loading (x-axis) in which the intercept on the x-axis is the monolayer dispersion threshold.
Further, in the step (1), the impregnation process is carried out in a water bath at a temperature of 90 °C, and the mixture is continuously stirred until the liquid is completely evaporated and the solute M^n+ ion salt is fully supported on the silica gel surface.
Further, in the step (1), the silica gel intermediate M/ SiO2 is dried in an oven for 10 h at a temperature of 120 °C.
Then, 1 g of silica gel pellets were added to each beaker and the beaker was placed in a water bath at a temperature of 90 °C. In the process of evaporation of water, the mixture was being stirred with a glass rod until the water evaporated and the pellets were basically dry. The beaker was dried in an oven at 120 °C for 10 hours.
Then, 1 g of silica gel pellets were added to each beaker and the beaker was placed in a water bath at a temperature of 90 °C.

O.O.O.O.O.O.O=[N+]([O-])[O-].O=[N+]([O-])[O-].[Co+2] [Co(NO3)2, cobalt nitrate]
monolayer dispersion threshold on silica gel: 0.63 g/g

O=S(=O)([O-])[O-].[Cu+2] [CuSO4, copper sulfate]
monolayer dispersion threshold on silica gel: 0.79 g/g

[Cl][Fe]([Cl])[Cl] [FeCl3, ferric chloride]
monolayer dispersion threshold on silica gel: 0.43 g/g

CC(=O)[O-].CC(=O)[O-].O.O.[Zn+2] [Zn(AC)2, zinc acetate]
monolayer dispersion threshold on silica gel: 0.18 g/g

O.O=[N+]([O-])[O-].O=[N+]([O-])[O-].[O]=[Zr+2] [ZrO(NO3)2]
monolayer dispersion threshold on silica gel: 1.02 g/g
